Source: patent publication US10072026B2, “Crystalline form of 3-((1R,3s,5S)-3-((7-((5-methyl-1H-pyrazol-3-yl)amino)-1,6-naphthyridin-5-yl)amino)-8-azabicyclo[3.2.1]octan-8-yl)propanenitrile” (priority 2015, dated 2018)
Where two headings read alike, the source gives them in different places.

Key:
JAK3 = JAK3 (Homo sapiens (Human), UniProt P52333); assay: LanthaScreen JAK biochemical assay (JAK3)
[1] = tested on: IL-4 induced STAT6 phosphorylation in THP-1 human monocytic cells; assay: Cellular JAK potency assay, THP-1; details: for THP-1 IL4 pIC50: IL-4 induced STAT6 phosphorylation, THP-1 cells; for IC50: Homo sapiens, THP-1, read-out: THP-1 IL4 pIC50 (converted)
JAK1 = JAK1 (Homo sapiens (Human), UniProt P23458); assay: LanthaScreen JAK biochemical assay (JAK1); details: for Ki: read-out: JAK 1 (pKi) (converted)
Chain of JAK1 (P23458 whole entry): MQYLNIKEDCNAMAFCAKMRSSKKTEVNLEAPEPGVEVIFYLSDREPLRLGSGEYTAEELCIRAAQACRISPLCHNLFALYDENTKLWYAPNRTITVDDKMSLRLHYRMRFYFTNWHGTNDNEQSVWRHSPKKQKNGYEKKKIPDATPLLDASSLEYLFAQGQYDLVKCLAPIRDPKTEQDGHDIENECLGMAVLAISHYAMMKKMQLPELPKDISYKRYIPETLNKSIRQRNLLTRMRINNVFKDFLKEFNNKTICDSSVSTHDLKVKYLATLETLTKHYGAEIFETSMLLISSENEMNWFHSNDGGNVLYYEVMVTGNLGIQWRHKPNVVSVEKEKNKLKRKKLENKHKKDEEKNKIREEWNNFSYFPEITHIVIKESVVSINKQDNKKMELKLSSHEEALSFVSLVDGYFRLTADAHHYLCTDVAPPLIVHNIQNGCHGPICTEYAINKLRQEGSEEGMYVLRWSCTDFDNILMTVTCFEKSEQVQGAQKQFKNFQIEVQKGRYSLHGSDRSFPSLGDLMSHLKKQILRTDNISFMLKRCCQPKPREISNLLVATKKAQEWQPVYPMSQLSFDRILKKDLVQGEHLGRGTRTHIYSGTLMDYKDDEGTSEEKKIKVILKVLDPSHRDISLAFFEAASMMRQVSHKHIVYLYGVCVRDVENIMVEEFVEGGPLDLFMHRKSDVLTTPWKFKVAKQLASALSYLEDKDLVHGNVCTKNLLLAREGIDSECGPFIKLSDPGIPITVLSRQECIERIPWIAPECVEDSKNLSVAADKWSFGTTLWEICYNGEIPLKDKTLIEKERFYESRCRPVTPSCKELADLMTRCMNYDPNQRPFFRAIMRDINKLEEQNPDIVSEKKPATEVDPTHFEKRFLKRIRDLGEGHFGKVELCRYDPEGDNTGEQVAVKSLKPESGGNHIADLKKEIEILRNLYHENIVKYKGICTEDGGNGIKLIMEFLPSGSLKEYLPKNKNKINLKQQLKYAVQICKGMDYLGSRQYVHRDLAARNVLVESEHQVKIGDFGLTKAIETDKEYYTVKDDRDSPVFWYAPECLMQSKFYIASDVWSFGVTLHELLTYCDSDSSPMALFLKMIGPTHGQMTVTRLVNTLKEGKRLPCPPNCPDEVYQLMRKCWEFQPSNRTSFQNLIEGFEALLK

JAK2 = JAK2 (Homo sapiens (Human), UniProt O60674); assay: LanthaScreen JAK biochemical assay (JAK2)
Chain of JAK2 (O60674 whole entry): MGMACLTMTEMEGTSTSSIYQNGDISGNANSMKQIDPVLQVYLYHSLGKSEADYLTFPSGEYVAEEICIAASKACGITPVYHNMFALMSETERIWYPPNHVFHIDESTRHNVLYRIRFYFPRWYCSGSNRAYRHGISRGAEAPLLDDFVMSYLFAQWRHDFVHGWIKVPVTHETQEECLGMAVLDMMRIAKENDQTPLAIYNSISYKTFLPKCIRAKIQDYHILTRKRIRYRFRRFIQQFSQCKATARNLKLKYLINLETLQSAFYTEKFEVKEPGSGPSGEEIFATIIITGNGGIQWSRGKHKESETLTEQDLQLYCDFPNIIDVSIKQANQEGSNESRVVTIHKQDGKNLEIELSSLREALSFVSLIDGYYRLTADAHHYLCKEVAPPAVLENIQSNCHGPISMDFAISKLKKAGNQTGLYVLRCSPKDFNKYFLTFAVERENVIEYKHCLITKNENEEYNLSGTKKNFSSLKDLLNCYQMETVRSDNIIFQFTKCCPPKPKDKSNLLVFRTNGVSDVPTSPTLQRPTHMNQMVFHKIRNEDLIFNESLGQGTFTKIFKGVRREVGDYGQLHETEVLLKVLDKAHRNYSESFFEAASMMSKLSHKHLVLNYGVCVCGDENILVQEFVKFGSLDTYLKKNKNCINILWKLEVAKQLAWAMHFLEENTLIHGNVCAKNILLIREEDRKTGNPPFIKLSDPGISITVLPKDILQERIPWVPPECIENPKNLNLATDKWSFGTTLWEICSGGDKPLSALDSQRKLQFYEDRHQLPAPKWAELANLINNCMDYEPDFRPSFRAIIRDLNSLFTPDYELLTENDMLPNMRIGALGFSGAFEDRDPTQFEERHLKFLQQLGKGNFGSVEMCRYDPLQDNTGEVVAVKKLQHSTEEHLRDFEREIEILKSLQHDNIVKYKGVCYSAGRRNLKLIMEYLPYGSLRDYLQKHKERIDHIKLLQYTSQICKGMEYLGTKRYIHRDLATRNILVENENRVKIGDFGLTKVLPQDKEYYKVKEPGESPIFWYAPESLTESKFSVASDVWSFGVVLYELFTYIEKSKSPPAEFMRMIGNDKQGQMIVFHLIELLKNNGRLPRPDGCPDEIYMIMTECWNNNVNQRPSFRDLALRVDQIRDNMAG

[2] = tested on: oxazolone-induced colitis; assay: Mouse model of oxazolone-induced colitis; format: in vivo, BALB/C mice; details: mouse, PO, 1, 3, and/or 10 mg/kg BID
Method: Assay 7: Mouse Model of Oxazalone-Induced Colitis
Oxazolone-induced colitis is an experimental model that has a histological resemblance to human ulcerative colitis (Heller et al. Immunology, 2002, 17, 629-638). Adult BALB/C mice from Harlan were used in the assay. On day 1, animals were lightly anesthetized with isoflurane and the hairs between the shoulder were carefully removed before oxazolone (4%, 150 μL, 4:1 acetone:olive oil formulation) or vehicle solution was slowly applied for skin sensitization. Seven days after skin sensitization, the mice were fasted overnight, anesthetized with isoflurane inhalation, and a 1 mL syringe equipped with a 3.5-F catheter, filled with oxazolone solution, was inserted carefully about 4 cm into the colon of the mouse. Following insertion, 50 μL of the oxazolone solution (1%, 1:1 ethanol:water formulation) was injected very slowly (over 30 sec using an injection pump) into the colon. The catheter was removed and the mice were held vertically (head down) for 2 min to ensure that the entire oxazolone solution remained inside the colon. Drug treatment (PO, BID or TID) or vehicle was initiated a day prior to the oxazolone intrarectal (IR) challenge. Two-day post oxazolone intrarectal challenge, the Disease Activity Index (DAI) was assessed by treatment-blinded experimenters for each mouse according to the criteria score: stool consistency score (0, normal; 2, loose; 4, diarrhea), gross bleeding score (0, absence; 2, blood tinged; 4, presence), and weight loss score (0, none; 1, 1%-5%; 2, 5%-10%; 3, 10%-20%; 4, more than 20%); DAI=average of (stool consistency score+gross bleeding score+weight loss score).
Selected compounds of the invention were tested in the assay. Efficacy in the model is evidenced by a decrease in DAI score as compared with the score from vehicle treated animals.

[3] = tested on: IL-13 induced STAT6 phosphorylation in BEAS-2B human lung epithelial cells; assay: AlphaScreen cellular JAK potency assay, BEAS-2B; details: for IC50: Homo sapiens, BEAS-2B, read-out: BEAS2B pIC50 (converted); for BEAS2B pIC50: IL-13 induced STAT6 phosphorylation, BEAS-2B cells
Tyk2 = Tyk2 (Homo sapiens (Human), UniProt P29597); assay: LanthaScreen JAK biochemical assay (Tyk2); details: for Ki: read-out: Tyk 2 (pKi) (converted)
Chain of Tyk2 (P29597 whole entry): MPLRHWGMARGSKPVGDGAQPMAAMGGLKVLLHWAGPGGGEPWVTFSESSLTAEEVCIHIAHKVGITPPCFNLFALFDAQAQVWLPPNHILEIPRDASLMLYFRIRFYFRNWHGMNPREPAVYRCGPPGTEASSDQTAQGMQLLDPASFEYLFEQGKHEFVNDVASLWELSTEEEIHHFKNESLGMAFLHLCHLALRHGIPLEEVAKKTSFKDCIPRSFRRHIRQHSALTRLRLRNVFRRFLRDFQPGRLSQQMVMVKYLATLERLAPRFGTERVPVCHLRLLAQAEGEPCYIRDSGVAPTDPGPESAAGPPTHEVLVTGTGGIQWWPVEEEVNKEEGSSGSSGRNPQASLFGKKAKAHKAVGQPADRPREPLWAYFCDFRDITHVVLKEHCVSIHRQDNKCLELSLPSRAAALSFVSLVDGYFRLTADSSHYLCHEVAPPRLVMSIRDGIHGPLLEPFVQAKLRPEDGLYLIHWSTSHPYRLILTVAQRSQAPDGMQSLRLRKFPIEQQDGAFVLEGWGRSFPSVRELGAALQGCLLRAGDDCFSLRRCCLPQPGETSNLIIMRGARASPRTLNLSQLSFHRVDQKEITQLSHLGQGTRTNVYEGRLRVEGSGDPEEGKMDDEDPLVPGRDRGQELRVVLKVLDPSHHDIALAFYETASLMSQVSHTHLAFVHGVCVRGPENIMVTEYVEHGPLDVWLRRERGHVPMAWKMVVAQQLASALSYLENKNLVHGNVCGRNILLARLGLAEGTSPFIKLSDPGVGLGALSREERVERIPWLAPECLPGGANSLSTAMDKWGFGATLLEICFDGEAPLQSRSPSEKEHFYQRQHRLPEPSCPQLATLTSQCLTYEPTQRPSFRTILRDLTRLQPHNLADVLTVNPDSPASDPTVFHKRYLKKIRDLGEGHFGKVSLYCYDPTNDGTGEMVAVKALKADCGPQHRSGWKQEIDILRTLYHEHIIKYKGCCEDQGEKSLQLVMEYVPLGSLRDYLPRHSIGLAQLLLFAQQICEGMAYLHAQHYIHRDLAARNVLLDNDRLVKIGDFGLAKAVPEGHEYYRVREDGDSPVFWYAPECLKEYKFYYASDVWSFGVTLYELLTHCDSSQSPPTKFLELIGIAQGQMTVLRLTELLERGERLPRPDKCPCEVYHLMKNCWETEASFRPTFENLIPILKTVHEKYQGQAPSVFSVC

[4] = read-out: JAK 2 (pKi) (converted)

Row | SMILES | JAK 3 (pKi) (JAK3) | THP-1 IL4 pIC50 [1] | JAK 1 (pKi) (JAK1) | JAK 2 (pKi) (JAK2) | decrease in DAI score as compared with vehicle treated animals [2] | IC50 [1] [nM] | Ki (JAK1) [nM] | IC50 [3] [nM] | BEAS2B pIC50 [3] | Ki (JAK2; [4]) [nM] | Ki (JAK2) [nM] | Tyk 2 (pKi) (Tyk2) | Ki (Tyk2) [nM]
1 | Cc1cc(Nc2cc3ncccc3c(N[C@@H]3C[C@H]4CCC[C@@H](C3)N4CC(=O)N(C)C)n2)n[nH]1 [Example 1-38] | C (C represents a pKi value between 7 and 9 (Ki between 100 nM and 1 nM)) | B (B represents a pEC50 value between 6.7 and 7.5 (EC50 between 200 nM and 32 nM)) | B (B represents a pKi value between 9 and 10 (Ki between 1 nM and 0.1 nM)) | B (B represents a pKi value between 9 and 10 (Ki between 1 nM and 0.1 nM)) | statistically significant decrease |  |  |  |  |  |  |  | 
2 | CCC(=O)N1[C@@H]2CC[C@H]1C[C@H](Nc1nc(Nc3cc(C)[nH]n3)cc3ncccc13)C2 [Example 2-1] |  |  |  |  | did not exhibit a statistically significant decrease | 31.6 to 200 | 0.1 to 1 | 31.6 to 200 |  |  |  |  | 
3 | CCOCC(=O)N1[C@@H]2CCC[C@H]1C[C@H](Nc1nc(Nc3cc(C)[nH]n3)cc3ncccc13)C2 [Example 2-17] | C (C represents a pKi value between 7 and 9 (Ki between 100 nM and 1 nM)) | B (B represents a pEC50 value between 6.7 and 7.5 (EC50 between 200 nM and 32 nM)) | B (B represents a pKi value between 9 and 10 (Ki between 1 nM and 0.1 nM)) | B (B represents a pKi value between 9 and 10 (Ki between 1 nM and 0.1 nM)) | did not exhibit a statistically significant decrease |  |  |  | A (A represents a pEC50 value≥7.5 (EC50≤32 nM)) |  |  |  | 
4 | Cc1cc(Nc2cc3ncccc3c(N[C@@H]3C[C@H]4CCC[C@@H](C3)N4C(=O)Cc3ccccc3)n2)n[nH]1 [Example 2-24] |  | A (A represents a pEC50 value≥7.5 (EC50≤32 nM)) | B (B represents a pKi value between 9 and 10 (Ki between 1 nM and 0.1 nM)) | B (B represents a pKi value between 9 and 10 (Ki between 1 nM and 0.1 nM)) | did not exhibit a statistically significant decrease |  |  |  | A (A represents a pEC50 value≥7.5 (EC50≤32 nM)) |  |  |  | 
5 | Cc1cc(Nc2cc3ncccc3c(N[C@@H]3C[C@H]4CC[C@@H](C3)N4S(=O)(=O)c3cccnc3)n2)n[nH]1 [Example 3, N^7-(5-methyl-1H-pyrazol-3-yl)-N^5-((1R,3s,5S)-8-(pyridin-3-ylsulfonyl)-8-azabicyclo[3.2.1]octan-3-yl)-1,6-naphthyridine-5,7-diamine] |  |  |  |  | statistically significant decrease | 31.6 to 200 | 0.1 to 1 | < 31.6 |  | 0.1 to 1 |  |  | 
6 | Cc1cc(Nc2cc3ncccc3c(N[C@@H]3C[C@H]4CC[C@@H](C3)N4S(=O)(=O)C3CC3)n2)n[nH]1 [Example 4-4] |  |  |  |  | did not exhibit a statistically significant decrease | < 31.6 | 0.1 to 1 | < 31.6 |  |  | 0.1 to 1 |  | 
7 | Cc1cc(Nc2cc3ncccc3c(N[C@@H]3C[C@H]4CC[C@@H](C3)N4S(=O)(=O)Cc3ccccc3)n2)n[nH]1 [Example 4-13] |  | B (B represents a pEC50 value between 6.7 and 7.5 (EC50 between 200 nM and 32 nM)) | B (B represents a pKi value between 9 and 10 (Ki between 1 nM and 0.1 nM)) |  | did not exhibit a statistically significant decrease |  |  |  | A (A represents a pEC50 value≥7.5 (EC50≤32 nM)) |  |  |  | 
8 | Cc1cc(Nc2cc3ncccc3c(N[C@@H]3C[C@H]4CCC[C@@H](C3)N4S(=O)(=O)C3CC3)n2)n[nH]1 [Example 4-18] |  | A (A represents a pEC50 value≥7.5 (EC50≤32 nM)) | A (A represents a pKi value≥10 (Ki≤0.1 nM)) |  | did not exhibit a statistically significant decrease |  |  |  | A (A represents a pEC50 value≥7.5 (EC50≤32 nM)) |  |  |  | 
9 | COCCS(=O)(=O)N1[C@@H]2CCC[C@H]1C[C@H](Nc1nc(Nc3cc(C)[nH]n3)cc3ncccc13)C2 [Example 4-19] | C (C represents a pKi value between 7 and 9 (Ki between 100 nM and 1 nM)) | A (A represents a pEC50 value≥7.5 (EC50≤32 nM)) |  |  | did not exhibit a statistically significant decrease |  |  |  | A (A represents a pEC50 value≥7.5 (EC50≤32 nM)) |  |  | B (B represents a pKi value between 9 and 10 (Ki between 1 nM and 0.1 nM)) | 
10 | Cc1cc(Nc2cc3nc(CO)ccc3c(N[C@@H]3C[C@H]4CC[C@@H](C3)N4CCC#N)n2)n[nH]1 [Example 5-11] |  | A (A represents a pEC50 value≥7.5 (EC50≤32 nM)) |  | A (A represents a pKi value≥10 (Ki≤0.1 nM)) | did not exhibit a statistically significant decrease |  |  |  | B (B represents a pEC50 value between 6.7 and 7.5 (EC50 between 200 nM and 32 nM)) |  |  |  | 
11 | CCS(=O)(=O)N1[C@@H]2CC[C@H]1C[C@H](Nc1nc(Nc3cc(C)[nH]n3)cc3ncccc13)C2 [Example 7, N^5-((1R,3s,5S)-8-(ethylsulfonyl)-8-azabicyclo[3.2.1]octan-3-yl)-N^7-(5-methyl-1H-pyrazol-3-yl)-1,6-naphthyridine-5,7-diamine] |  |  |  |  | did not exhibit a statistically significant decrease | < 31.6 |  | < 31.6 |  | 0.1 to 1 |  |  | 0.1 to 1
12 | Cc1cc(Nc2cc3ncccc3c(N[C@@H]3C[C@H]4CCC[C@@H](C3)N4S(=O)(=O)c3ccccc3)n2)n[nH]1 [Example 9, N^7-(5-methyl-1H-pyrazol-3-yl)-N^5-((1R,3s,5S)-9-(phenylsulfonyl)-9-azabicyclo[3.3.1]nonan-3-yl)-1,6-naphthyridine-5,7-diamine] |  |  |  |  | did not exhibit a statistically significant decrease | < 31.6 | 0.1 to 1 | < 31.6 |  | 0.1 to 1 |  |  | 0.1 to 1
13 | Cc1cc(Nc2cc3ncccc3c(N[C@@H]3C[C@H]4CCC[C@@H](C3)N4S(=O)(=O)N3CC(C#N)C3)n2)n[nH]1 [Example 11, 1-(((1R,3s,5S)-3-((7-((5-methyl-1H-pyrazol-3-yl)amino)-1,6-naphthyridin-5-yl)amino)-9-azabicyclo[3.3.1]nonan-9-yl)sulfonyl)azetidine-3-carbonitrile] |  |  |  |  | did not exhibit a statistically significant decrease | 31.6 to 200 |  | < 31.6 |  |  |  |  | 
14 | Cc1cc(Nc2cc3ncccc3c(N[C@@H]3C[C@H]4CC[C@@H](C3)N4S(=O)(=O)N3CC(C#N)C3)n2)n[nH]1 [Example 13, 1-(((1R,3s,5S)-3-((7-((5-methyl-1H-pyrazol-3-yl)amino)-1,6-naphthyridin-5-yl)amino)-8-azabicyclo[3.2.1]octan-8-yl)sulfonyl)azetidine-3-carbonitrile] |  |  |  |  | did not exhibit a statistically significant decrease | 31.6 to 200 |  | 31.6 to 200 |  |  |  |  | 0.1 to 1
